Experimental data taken from PubChem BioAssay AID330 (DTP/NCI, 2004).
Where “and” joins values, the source holds several entries; their conditions need not be identical. Equal entries are not always repeated. Inconclusive results and toxic doses are left out. How the source made its calls: active means survival T/C of 150% or more; inactive means T/C below 125% in these data.

Tested on: P388 leukemia ip, CD2F1 mice, survival T/C
Experiment: NCI In Vivo Anticancer Drug Screen. Data for tumor model P388 Leukemia (intraperitoneal) in CD2F1 (CDF1) mice
Details: endpoint: median survival time, higher = longer survival
Procedure, shortened: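 Mice carrying the transplanted tumor received test compound or vehicle. Survival was recorded in each group, and the value is the treated-group measurement divided by that of the vehicle-treated control group.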

[1] = dose: 25.0 mg/kg/injection, schedule: Q01DX001 (ip), vehicle: Klucel (hydroxypropylcellulose) (HPC)
[2] = dose: 50.0 mg/kg/injection, schedule: Q01DX001 (ip), vehicle: Klucel (hydroxypropylcellulose) (HPC)
[3] = dose: 100.0 mg/kg/injection, schedule: Q01DX001 (ip), vehicle: Klucel (hydroxypropylcellulose) (HPC)
[4] = dose: 60.0 mg/kg/injection, schedule: Q01DX005 (ip), vehicle: saline with Tween-80
[5] = dose: 120.0 mg/kg/injection, schedule: Q01DX005 (ip), vehicle: saline with Tween-80
[6] = dose: 240.0 mg/kg/injection, schedule: Q01DX005 (ip), vehicle: saline with Tween-80
[7] = dose: 6.25 mg/kg/injection, schedule: Q01DX009 (ip), vehicle: saline
[8] = dose: 12.5 mg/kg/injection, schedule: Q01DX009 (ip), vehicle: saline
[9] = dose: 25.0 mg/kg/injection, schedule: Q01DX009 (ip), vehicle: saline
[10] = dose: 100.0 mg/kg/injection, schedule: Q01DX009 (ip), vehicle: saline
[11] = dose: 200.0 mg/kg/injection, schedule: Q01DX009 (ip), vehicle: saline
[12] = dose: 50.0 mg/kg/injection, schedule: Q01DX009 (ip), vehicle: saline
[13] = dose: 50.0 mg/kg/injection, schedule: Q01DX005 (ip), vehicle: saline with Tween-80
[14] = dose: 100.0 mg/kg/injection, schedule: Q01DX005 (ip), vehicle: saline with Tween-80
[15] = dose: 12.5 mg/kg/injection, schedule: Q01DX009 (ip), vehicle: Klucel (hydroxypropylcellulose) (HPC)
[16] = dose: 25.0 mg/kg/injection, schedule: Q01DX009 (ip), vehicle: Klucel (hydroxypropylcellulose) (HPC)
[17] = dose: 50.0 mg/kg/injection, schedule: Q01DX009 (ip), vehicle: Klucel (hydroxypropylcellulose) (HPC)
[18] = dose: 50.0 mg/kg/injection, schedule: Q01DX009 (ip), vehicle: saline with Tween-80
[19] = dose: 100.0 mg/kg/injection, schedule: Q01DX009 (ip), vehicle: saline with Tween-80
[20] = dose: 200.0 mg/kg/injection, schedule: Q01DX009 (ip), vehicle: saline with Tween-80
[21] = dose: 50.0 mg/kg/injection, schedule: Q01DX005 (ip), vehicle: Klucel (hydroxypropylcellulose) (HPC)
[22] = dose: 100.0 mg/kg/injection, schedule: Q01DX005 (ip), vehicle: Klucel (hydroxypropylcellulose) (HPC)
[23] = dose: 50.0 mg/kg/injection, schedule: Q04DX003 (ip), vehicle: saline with Tween-80
[24] = dose: 100.0 mg/kg/injection, schedule: Q04DX003 (ip), vehicle: saline with Tween-80
[25] = dose: 200.0 mg/kg/injection, schedule: Q01DX005 (ip), vehicle: Klucel (hydroxypropylcellulose) (HPC)

Measured: T/C

c1cc2ccc3ccc4ccc5ccc6ccc1c1c2c3c4c5c61
inactive: dose: 12.5 mg/kg/injection, schedule: Q01DX001 (ip), vehicle: Klucel (hydroxypropylcellulose) (HPC) 100 % of control | [1] 104 % of control | [2] 96 % of control | [3] 96 % of control

c1ccc2sc(SCCSc3nc4ccccc4s3)nc2c1
inactive: dose: 60.0 mg/kg/injection, schedule: Q01DX005 (ip), vehicle: Klucel (hydroxypropylcellulose) (HPC) 99 % of control | dose: 120.0 mg/kg/injection, schedule: Q01DX005 (ip), vehicle: Klucel (hydroxypropylcellulose) (HPC) 92 % of control | dose: 240.0 mg/kg/injection, schedule: Q01DX005 (ip), vehicle: Klucel (hydroxypropylcellulose) (HPC) 89 % of control

O=C1OC[C@@H]2[C@H]1[C@H]1O[C@@H]2c2cc3ccccc3cc21
inactive: [4] 104 % of control | [5] 101 % of control | [6] 101 % of control

C/C=C1/CN2CCC34c5ccccc5N(C)C23C(O)CC1C4(CO)C(=O)OC (stereo not drawn)
inactive: dose: 13.75 mg/kg/injection, schedule: Q01DX005 (ip), vehicle: saline + Tween-80 + alcohol 106 % of control | dose: 27.5 mg/kg/injection, schedule: Q01DX005 (ip), vehicle: saline + Tween-80 + alcohol 102 % of control | dose: 55.0 mg/kg/injection, schedule: Q01DX005 (ip), vehicle: saline + Tween-80 + alcohol 110 % of control | dose: 110.0 mg/kg/injection, schedule: Q01DX005 (ip), vehicle: saline + Tween-80 + alcohol 100 % of control

CCc1cccc(CC)c1N1C(=O)COCC1=O
inactive: [7] 96 % of control | [8] 93 % of control | [9] 92 % of control | [10] 100 % of control | [11] 100 % of control

Cn1c(/C=C/CO)c(CO)c2c1C(=O)C=C(N1CC1)C2=O
inactive: dose: 1.5 mg/kg/injection, schedule: Q01DX005 (ip), vehicle: saline 106 % of control | dose: 3.0 mg/kg/injection, schedule: Q01DX005 (ip), vehicle: saline 94 % of control

CCC1=CCCN(Cc2ccccc2)C1C#N (stereo not drawn)
inactive: dose: 7.5 mg/kg/injection, schedule: Q01DX005 (ip), vehicle: Klucel (hydroxypropylcellulose) (HPC) 106 % of control | dose: 15.0 mg/kg/injection, schedule: Q01DX005 (ip), vehicle: Klucel (hydroxypropylcellulose) (HPC) 111 % of control | dose: 30.0 mg/kg/injection, schedule: Q01DX005 (ip), vehicle: Klucel (hydroxypropylcellulose) (HPC) 118 % of control

CCOC(=O)c1ccc2nc(/N=C/c3ccccc3Cl)sc2c1
inactive: [12] 105 % of control | [10] 108 % of control | [11] 105 % of control

Clc1ccc2c(NCCCCCCNc3ccnc4cc(Cl)ccc34)ccnc2c1
inactive: dose: 6.25 mg/kg/injection, schedule: Q01DX005 (ip), vehicle: saline with Tween-80 97 % of control | dose: 12.5 mg/kg/injection, schedule: Q01DX005 (ip), vehicle: saline with Tween-80 90 % of control | dose: 25.0 mg/kg/injection, schedule: Q01DX005 (ip), vehicle: saline with Tween-80 99 % of control | [13] 100 % of control | [14] 109 % of control

O=C(CCc1ccc(O)cc1)ON1C(=O)CCC1=O
inactive: [15] 108 % of control | [16] 109 % of control | [17] 104 % of control

CNP1(NC)=NP(N(C)C)(N(C)C)=NP(N(C)C)(N(C)C)=N1
inactive: dose: 50.0 mg/kg/injection, schedule: Q01DX005 (ip), vehicle: saline 102 % of control | dose: 100.0 mg/kg/injection, schedule: Q01DX005 (ip), vehicle: saline 112 % of control | dose: 200.0 mg/kg/injection, schedule: Q01DX005 (ip), vehicle: saline 104 % of control

N#CC1=C(C#N)Sc2nc3cc(Cl)ccc3nc2S1
inactive: [7] 109 % of control | [8] 115 % of control and 95 % of control | [9] 108 % of control | [12] 115 % of control

CCCCB1OB(CCCC)OB(CCCC)O1
inactive: [18] 92 % of control | [19] 105 % of control | [20] 105 % of control

COc1ccccc1N=NC1=C2Nc3ccccc3N=C1N(c1ccccc1OC)C(=S)N2c1ccccc1C
inactive: [13] 102 % of control | [14] 103 % of control

CCOc1ccc(NC(=O)/C(=C\c2ccc(C)cc2)C(C)=O)cc1
inactive: [13] 106 % of control | [14] 110 % of control | dose: 200.0 mg/kg/injection, schedule: Q01DX005 (ip), vehicle: saline with Tween-80 104 % of control

COc1nc(C(Br)Br)c([N+](=O)[O-])c(N2CCOCC2)n1
inactive: dose: 25.0 mg/kg/injection, schedule: Q01DX005 (ip), vehicle: Klucel (hydroxypropylcellulose) (HPC) 109 % of control | [21] 101 % of control | [22] 87 % of control

O=C(Nc1ccccc1)Oc1ccc(/C=N/Sc2cccc([N+](=O)[O-])c2)cc1
inactive: [18] 87 % of control | [19] 101 % of control | [20] 106 % of control

CC1Cc2c([nH]c(=O)n(-c3ccccc3)c2=S)O1 (stereo not drawn)
inactive: [1] 96 % of control | [2] 112 % of control | [3] 100 % of control

CN(C)c1nc(N)c(N=O)c(=O)[nH]1
inactive: dose: 12.5 mg/kg/injection, schedule: Q01DX009 (ip), vehicle: saline with Tween-80 104 % of control | dose: 25.0 mg/kg/injection, schedule: Q01DX009 (ip), vehicle: saline with Tween-80 94 % of control | [18] 94 % of control | [12] 87 % of control | [23] 94 % of control | [24] 93 % of control

COc1ccccc1N=C(C)C1C(=O)c2ccccc2C1=O
inactive: [21] 104 % of control | [22] 104 % of control | [25] 100 % of control

CCC1C(=O)COC1=O (stereo not drawn)
inactive: [21] 99 % of control | [22] 99 % of control | [25] 99 % of control

COC(=O)/C(=C1/OC(=O)C(c2ccccc2)=C1O)c1ccccc1
inactive: dose: 6.25 mg/kg/injection, schedule: Q01DX009 (ip), vehicle: Klucel (hydroxypropylcellulose) (HPC) 99 % of control | [15] 94 % of control | [16] 99 % of control | [17] 93 % of control | [12] 95 % of control

CCOC(=O)CCCCCCCCNC(=O)N1c2c(nc(N)[nH]c2=O)NCC1CNc1ccc(C(=O)NC(CCC(=O)O)C(=O)O)cc1 (stereo not drawn)
inactive: dose: 50.0 mg/kg/injection, schedule: Q04DX003 (ip), vehicle: Klucel (hydroxypropylcellulose) (HPC) 111 % of control | dose: 100.0 mg/kg/injection, schedule: Q04DX003 (ip), vehicle: Klucel (hydroxypropylcellulose) (HPC) 106 % of control | dose: 200.0 mg/kg/injection, schedule: Q04DX003 (ip), vehicle: Klucel (hydroxypropylcellulose) (HPC) 108 % of control

CC(=O)OCC1OC(n2ccc(=S)[nH]c2=O)C(OC(C)=O)C1OC(C)=O (stereo not drawn)
inactive: [23] 93 % of control | [24] 100 % of control | dose: 200.0 mg/kg/injection, schedule: Q04DX003 (ip), vehicle: saline with Tween-80 92 % of control | dose: 400.0 mg/kg/injection, schedule: Q04DX003 (ip), vehicle: saline with Tween-80 102 % of control

CCOC(=CP(=O)(c1ccccc1)c1ccccc1)OCC
inactive: dose: 50.0 mg/kg/injection, schedule: Q01DX005 (ip), vehicle: distilled water + Tween-80 + alcohol 106 % of control | dose: 100.0 mg/kg/injection, schedule: Q01DX005 (ip), vehicle: distilled water + Tween-80 + alcohol 105 % of control | dose: 200.0 mg/kg/injection, schedule: Q01DX005 (ip), vehicle: distilled water + Tween-80 + alcohol 100 % of control

Nc1nc(N)c(NS(=O)(=O)c2ccccc2)c(=O)[nH]1
inactive: [4] 108 % of control | [5] 100 % of control | [6] 105 % of control

[CH3][Ge]([CH3])[c]1ccccc1
inactive: [12] 101 % of control | [10] 95 % of control

Cc1cc(C2=CSC3=NCCN23)ccc1Cl
inactive: [13] 107 % of control | [14] 105 % of control
